Data from patent US20230322715A1, “BROAD SPECTRUM ANTI-CANCER COMPOUNDS” (The Regents of the University of California, priority 2019, published 2023).
“And” between values parts separate entries of the source, which are not always exact repeats. Identical values can stand only once. Like-named read-outs stand apart in the source and are kept apart here.

Tests used:
[1] = target: FTO (Homo sapiens (Human), UniProt Q9C0B1); experiment: Fluorescence enzymatic inhibition assay (m6A7-Broccoli RNA / DFHBI-1T) against FTO; type: biochemical
Chain of FTO (Q9C0B1 whole entry): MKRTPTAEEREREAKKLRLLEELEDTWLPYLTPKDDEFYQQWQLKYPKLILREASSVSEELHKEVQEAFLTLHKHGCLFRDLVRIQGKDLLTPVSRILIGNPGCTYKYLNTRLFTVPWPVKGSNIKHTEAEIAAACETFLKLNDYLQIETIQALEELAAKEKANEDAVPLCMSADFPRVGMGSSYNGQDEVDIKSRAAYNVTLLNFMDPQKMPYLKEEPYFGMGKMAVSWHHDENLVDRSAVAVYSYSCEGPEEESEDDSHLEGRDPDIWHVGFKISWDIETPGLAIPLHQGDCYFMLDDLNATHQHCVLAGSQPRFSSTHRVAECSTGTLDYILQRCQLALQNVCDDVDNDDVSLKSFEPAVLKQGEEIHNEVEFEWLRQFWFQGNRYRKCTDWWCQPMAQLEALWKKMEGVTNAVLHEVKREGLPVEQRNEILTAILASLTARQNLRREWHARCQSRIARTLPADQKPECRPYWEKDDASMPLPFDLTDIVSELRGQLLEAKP
Procedure: In order to determine their efficacy as FTO inhibitors, the compounds were screened by a fluorescence enzymatic inhibition assay developed previously by the Jaffrey lab.^44 Briefly, a nonfluorescent methylated RNA substrate termed “m6A7-Broccoli” is incubated with FTO in the presence of 2-oxoglutarate (300 μM), (NH4)2Fe(SO4)2·6H2O (300 μM), and L-ascorbate (2 mM) for 2 hours at room temperature in reaction buffer (50 mM NaHEPES, pH 6).
(§1) Inhibitors were added in concentrations ranging from 0.008-40 μM; all inhibitors were dissolved in DMSO and added to a final concentration of 0.2% DMSO. […] After incubation at room temperature for 2 hours, the plates were left at 4° C. overnight (16 hours) to allow DFHBI-1T to bind to A7-Broccoli RNA. […] Sigmoidal dose-response curves were fitted in GraphPad Prism 6. All assays were performed in triplicate, with additional repetitions added as necessary.

[2] = target: ALKBH5 (Homo sapiens (Human), UniProt Q6P6C2); experiment: Fluorescence enzymatic inhibition assay (m6A7-Broccoli RNA / DFHBI-1T) against ALKBH5; type: biochemical
Chain of ALKBH5 (Q6P6C2 whole entry): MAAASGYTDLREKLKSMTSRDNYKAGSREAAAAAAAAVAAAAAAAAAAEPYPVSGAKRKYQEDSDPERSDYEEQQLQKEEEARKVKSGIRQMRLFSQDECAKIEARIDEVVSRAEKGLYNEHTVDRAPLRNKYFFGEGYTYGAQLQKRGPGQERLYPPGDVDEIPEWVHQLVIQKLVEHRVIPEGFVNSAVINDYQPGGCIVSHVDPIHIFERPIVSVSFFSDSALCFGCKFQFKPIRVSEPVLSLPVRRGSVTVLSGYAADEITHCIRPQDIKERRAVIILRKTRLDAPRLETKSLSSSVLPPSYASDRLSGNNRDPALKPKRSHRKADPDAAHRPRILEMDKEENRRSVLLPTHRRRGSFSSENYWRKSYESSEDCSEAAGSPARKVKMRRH
Procedure: as §1

[3] = elogD / log D determination
[4] = target: YTHDF2 (Homo sapiens (Human), UniProt Q9Y5A9); experiment: In vitro FRET assay for binding affinities of YTH inhibitors, YTHDF2
Chain of YTHDF2 (Q9Y5A9 whole entry): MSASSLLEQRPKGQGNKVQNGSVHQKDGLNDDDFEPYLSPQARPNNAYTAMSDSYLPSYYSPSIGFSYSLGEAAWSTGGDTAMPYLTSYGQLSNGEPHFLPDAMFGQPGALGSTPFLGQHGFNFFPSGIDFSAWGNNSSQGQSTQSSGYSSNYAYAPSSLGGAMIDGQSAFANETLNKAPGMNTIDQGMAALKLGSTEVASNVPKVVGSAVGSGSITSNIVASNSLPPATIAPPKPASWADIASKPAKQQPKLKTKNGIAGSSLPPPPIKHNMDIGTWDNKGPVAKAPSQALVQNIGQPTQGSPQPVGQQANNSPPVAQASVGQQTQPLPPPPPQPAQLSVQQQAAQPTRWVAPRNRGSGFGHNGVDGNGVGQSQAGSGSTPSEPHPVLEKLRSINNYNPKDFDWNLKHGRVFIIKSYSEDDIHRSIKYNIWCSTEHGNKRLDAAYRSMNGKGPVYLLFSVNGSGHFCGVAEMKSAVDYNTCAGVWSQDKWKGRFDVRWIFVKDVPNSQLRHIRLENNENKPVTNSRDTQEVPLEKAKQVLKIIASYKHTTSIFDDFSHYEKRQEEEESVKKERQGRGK
Description: FIG. 8-2 depicts possible design and synthesis of compound libraries. In Vitro FRET assay development could yield a high throughput FRET assay to determine binding affinities for potential YHT inhibitors against YTHDF1, YTHDF2, YTHDF3, or other similar proteins.

[5] = Table 700 compounds, read-out: Enzymatic IC50 FTO
[6] = Table 700 compounds, read-out: Enzymatic IC50 ALKBH5
[7] = ALK series, permeability data and IC50 tables, read-out: Enzymatic IC50 ALKBH5
[8] = m6A7-Broccoli fluorescence assay, 0.250 μM ALKBH5, read-out: Enzymatic IC50 ALKBH5
[9] = m6A7-Broccoli fluorescence assay, 0.250 μM FTO, inhibitor up to 40 μM, triplicate, read-out: Enzymatic IC50 FTO
[10] = Table 800 compounds, read-out: FTO IC50
[11] = Table 800 compounds, read-out: ALKBH5 IC50

CCOC(=O)C1CC1C1NCCS1 (stereo not drawn) [ALK-01]
IC50 [1, 5]: 103 µM and > 40 µM | IC50 [2, 6]: 17.5 µM | elogD ([3]; Table 700 compounds): 0.58

CC(C)(C)OC(=O)N1CCC(F)(C2NCCS2)C1 (stereo not drawn) [ALK-02]
IC50 [1, 5]: > 40 µM | IC50 [2, 6]: 16.6 µM | elogD ([3]; Table 700 compounds): 1.40

O=C(O)N1CCC(F)(C2NCCS2)C1 (stereo not drawn) [ALK-03]
IC50 [1, 5]: > 40 µM | IC50 [2, 6]: > 40 µM | elogD ([3]; Table 700 compounds): 0.62

CC1(C)SCC(C)(C(=O)O)N1C(N)=O (stereo not drawn) [ALK-05]
IC50 [1, 5]: > 40 µM | IC50 [2, 6]: 19.8 ± 1.8 µM | elogD ([3]; Table 700 compounds): 0.16

O=C(O)[C@H]1NCCS1 [ALK-06]
IC50 [1, 5]: > 40 µM | IC50 [2, 6]: 8.8 µM and 7.95 µM | elogD ([3]; Table 700 compounds): 0.89

CC1(C)S[C@@H]2[C@H](N)C(=O)N2[C@H]1C(=O)O [ALK-07]
IC50 [1, 5]: > 40 µM | IC50 [2, 6]: 10 ± 2.8 µM | elogD ([3]; Table 700 compounds): 0.95

C[C@]1(Cn2ccnn2)C(C(=O)O)N2C(=O)C[C@H]2S1(=O)=O (stereo partly drawn) [ALK-08]
IC50 [1, 5]: > 40 µM | IC50 [2, 6]: 9.9 ± 1.3 µM | elogD ([3]; Table 700 compounds): 0.36

CC1(C)[C@H](C(=O)O)N2C(=O)C[C@H]2S1(=O)=O [ALK-09]
IC50 [1, 5]: > 40 µM | IC50 [2, 6]: 3.8 µM and 5.7 µM | elogD ([3]; Table 700 compounds): 0.41

O=C1N[C@H](C(=O)O)CS1 [ALK-10]
IC50 [1, 5]: > 40 µM | IC50 [2, 6]: 1.7 ± 1.1 µM | elogD ([3]; Table 700 compounds): 0.54

COC(=O)C1COC(c2ccc(O)cc2)N1 (stereo not drawn) [ALK-13]
IC50 [1, 5]: > 40 µM | IC50 [2, 6]: 6.7 ± 1.8 µM | elogD ([3]; Table 700 compounds): 2.12

COC(=O)C1COC(c2ccccc2O)N1 (stereo not drawn) [ALK-16]
IC50 [1, 5]: > 40 µM | IC50 [2, 7]: 8.2 ± 2.3 µM | IC50 [2, 6]: 8.2 ± 2.3 µM | elogD ([3]; Table 700 compounds): 1.44

COC(=O)C1COC(c2ccc(OC)cc2O)N1 (stereo not drawn) [ALK-17]
IC50 [2, 7]: 18.2 µM

COC(=O)C1COC(c2ccc(-c3ccccc3)o2)N1 (stereo not drawn) [ALK-18]
IC50 [1, 5]: 14.2 ± 3.1 µM | IC50 [2, 7]: 5.4 ± 1.4 µM | IC50 [2, 6]: 5.4 ± 0.7 µM | elogD ([3]; Table 700 compounds): 0.73

COC(=O)C1COC(c2cc(C(C)(C)C)ccc2O)N1 (stereo not drawn) [ALK-19]
IC50 [2, 7]: 24 ± 4.2 µM

COC(=O)C1COC(c2ccc(OC)c(Cl)c2)N1 (stereo not drawn) [ALK-23]
IC50 [1, 5]: > 40 µM | IC50 [2, 6]: 2.8 ± 0.5 µM | elogD ([3]; Table 700 compounds): 3.01

COC(=O)C1COC(c2ccc(-c3ccccc3)s2)N1 (stereo not drawn) [ALK-25]
IC50 [1, 5]: > 40 µM | IC50 [2, 6]: 0.9 ± 0.2 µM | elogD ([3]; Table 700 compounds): 1.17

CCN(CC)c1ccc(C2NC(C(=O)OC)CS2)c(O)c1 (stereo not drawn) [ALK-30]
IC50 [1, 5]: > 40 µM | IC50 [2, 6]: 1.4 ± 0.4 µM | elogD ([3]; Table 700 compounds): 0.67

COc1ncc(-c2ccc3cc(O)ccc3c2)cn1 [FTO-2, 6-(2-methoxypyrimidin-5-yl)naphthalen-2-ol]
IC50 [2, 8]: 85.5 µM

COc1ncc(-c2ccc3nc(N)sc3c2)cn1 [FTO-4, 6-(2-methoxypyrimidin-5-yl)benzo[d]thiazol-2-amine]
IC50 [1, 9]: 3.39 ± 2.5 µM | IC50 [2, 8]: 39.4 ± 3.1 µM

O=S(=O)(NCC1CCCOC1)c1ccc(OC(F)(F)F)cc1 (stereo not drawn) [TR-ALKBH5-04]
IC50 [1, 10]: 19.7 µM | IC50 [2, 11]: 0.24 µM | elogD ([3]; Table 800 compounds): 0.37

CC(=O)c1ccc(S(=O)(=O)NCC2CCCOC2)cc1 (stereo not drawn) [TR-ALKBH5-05]
IC50 [1, 10]: > 40 µM | IC50 [2, 11]: 1.9 µM | elogD ([3]; Table 800 compounds): 1.12

O=S(=O)(NCC1CCCOC1)c1ccccc1 (stereo not drawn) [TR-ALKBH5-08]
IC50 [1, 10]: 6.4 µM | IC50 [2, 11]: 0.5 µM | elogD ([3]; Table 800 compounds): 0.89

O=S(=O)(Nc1ccc(Cl)c(C(F)(F)F)c1)c1ccc(OC(F)(F)F)cc1 [TR-ALKBH5-25]
IC50 [1, 10]: > 40 µM | IC50 [2, 11]: 1.6 µM | elogD ([3]; Table 800 compounds): 1.50

O=S(=O)(Nc1cccs1)c1ccc(OC(F)(F)F)cc1 [TR-ALKBH5-27]
IC50 [1, 10]: > 40 µM | IC50 [2, 11]: 2 µM | elogD ([3]; Table 800 compounds): 0.36

O=S(=O)(Nc1cc(Cl)ccc1O)c1ccc(OC(F)(F)F)cc1 [TR-ALKBH5-29]
IC50 [1, 10]: > 40 µM | IC50 [2, 11]: 0.11 µM | elogD ([3]; Table 800 compounds): 0.88

O=S(=O)(Nc1cc(F)ccc1O)c1ccc(OC(F)(F)F)cc1 [TR-ALKBH5-30]
IC50 [1, 10]: > 40 µM | IC50 [2, 11]: 1 µM | elogD ([3]; Table 800 compounds): 0.81

O=S(=O)(Nc1ccc(Cl)c(Cl)c1)c1ccc(OC(F)(F)F)cc1 [TR-ALKBH5-33]
elogD ([3]; Table 800 compounds): 1.24

O=C(C1CC1)N1CCN(S(=O)(=O)c2ccc(OC(F)(F)F)cc2)CC1 [TR-ALKBH5-41]
chromatographic logD [3]: 0.79

COc1cc(NC(=O)C2CC(Oc3ccccc3)CN2C(=O)c2ccccc2OC)cc(OC)c1 (stereo not drawn) [TR-FTO 2-01]
IC50 ([1]; read-out: Enzymatic IC50 FTO): 0.61 ± 0.17 µM

COc1ccccc1C(=O)N1CC(Oc2ccccc2)CC1C(=O)Nc1ccc(C)c(C)c1 (stereo not drawn) [TR-FTO 2-02]
IC50 ([1]; read-out: Enzymatic IC50 FTO): 0.19 ± 0.03 µM

COc1ccc(CNC(=O)C2CC(Oc3ccccc3)CN2C(=O)c2ccccc2OC)cc1 (stereo not drawn) [TR-FTO 2-03]
IC50 ([1]; read-out: Enzymatic IC50 FTO): 1.24 ± 0.65 µM

COc1ccc(CNC(=O)C2CC(Oc3ccccc3)CN2C(=O)c2ccccc2OC)c(OC)c1 (stereo not drawn) [TR-FTO 2-04]
IC50 ([1]; read-out: Enzymatic IC50 FTO): 6.67 ± 2.31 µM

COc1ccccc1C(=O)N1CC(Oc2ccccc2)CC1C(=O)Nc1ccc(C(C)=O)cc1 (stereo not drawn) [TR-FTO 2-05]
IC50 ([1]; read-out: Enzymatic IC50 FTO): 8.31 ± 2.07 µM

COc1ccccc1C(=O)N1CC(Oc2ccccc2)CC1C(=O)NCc1ccccn1 (stereo not drawn) [TR-FTO 2-06]
IC50 ([1]; read-out: Enzymatic IC50 FTO): 12.5 ± 2.7 µM

COc1ccccc1C(=O)N1CC(Oc2ccccc2)CC1C(=O)NCc1cccnc1 (stereo not drawn) [TR-FTO 2-07]
IC50 ([1]; read-out: Enzymatic IC50 FTO): 0.17 ± 0.03 µM

COc1ccccc1C(=O)N1CC(Oc2ccccc2)CC1C(=O)Nc1ccccc1SC (stereo not drawn) [TR-FTO 2-08]
IC50 ([1]; read-out: Enzymatic IC50 FTO): 10.3 ± 2.29 µM

COc1ccccc1C(=O)N1CC(Oc2ccccc2)CC1C(=O)Nc1cccc(F)c1O (stereo not drawn) [TR-FTO 2-09]
IC50 ([1]; read-out: Enzymatic IC50 FTO): > 40 µM

Cc1ccc2[nH]cc(CNCC3(N4CCCC4)COC3)c2c1 [TR-FTO-09]
IC50 [2, 8]: > 40 µM

Fc1ccc2[nH]cc(CNCC3(N4CCCC4)COC3)c2c1 [TR-FTO-11]
IC50 [2, 8]: 6.6 µM

Fc1ccc2c(CNCC3(N4CCCC4)COC3)c[nH]c2c1 [TR-FTO-12]
IC50 [2, 8]: 2.3 µM

c1ccc2c(CNCC3(N4CCCC4)COC3)c[nH]c2c1 [TR-FTO-13]
IC50 [1, 9]: 1 µM | IC50 [2, 8]: > 40 µM

COc1cccc2c(CNCC3(N4CCCC4)COC3)c[nH]c12 [TR-FTO-14]
IC50 [2, 8]: > 40 µM | elogD [3]: 0.40

Fc1cccc2c(CNCC3(N4CCCC4)COC3)c[nH]c12 [TR-FTO-16]
IC50 [1, 9]: 2.2 µM | IC50 [2, 8]: 0.87 µM

Fc1cccc2[nH]cc(CNCC3(N4CCCC4)COC3)c12 [TR-FTO-17]
IC50 [1, 9]: 1.3 µM | IC50 [2, 8]: 2.5 µM

c1cc2c(cc1CNCC1(N3CCCC3)COC1)OCCO2 [TR-FTO-27]
IC50 [2, 8]: 5.9 µM | elogD [3]: 0.55

Cc1ccc(CNCC2(N3CCCC3)COC2)cc1C [TR-FTO-30]
IC50 [2, 8]: 9.9 µM | elogD [3]: 0.87

c1ccc(-c2ccc(CNCC3(N4CCCC4)COC3)o2)cc1 [TR-FTO-35]
IC50 [2, 8]: 55 µM | elogD [3]: 1.14

c1cc2cc(CNCC3(N4CCCC4)COC3)ccc2[nH]1 [TR-FTO-37]
IC50 [2, 8]: 3.3 µM | elogD [3]: 0.75

c1ccc(-c2ccc(CNCC3(N4CCCC4)COC3)s2)cc1 [TR-FTO-38]
IC50 [2, 8]: 3.4 µM | elogD [3]: 1.57

FC(F)(F)Sc1ccc(CNCC2(N3CCCC3)COC2)cc1 [TR-FTO-40]
IC50 [2, 8]: 3 µM | elogD [3]: 1.29

Cc1ccc2c(CNCC3(N4CCCC4)COC3)c[nH]c2c1 [TR-FTO-42]
IC50 [1, 9]: 3 µM | IC50 [2, 8]: 13.4 µM

Fc1ccc2c(CNCC3(N4CCC(F)C4)COC3)c[nH]c2c1 (stereo not drawn) [TR-FTO-44]
chromatographic logD [3]: 0.95

Fc1ccc2[nH]cc(CNCC3(N4CCC(F)C4)COC3)c2c1 (stereo not drawn) [TR-FTO-45]
IC50 [2, 8]: 30.5 µM | elogD [3]: 1.03

FC1CCN(C2(CNCc3c[nH]c4ccccc34)COC2)C1 (stereo not drawn) [TR-FTO-47]
IC50 [1, 9]: 2.1 µM | IC50 [2, 8]: > 40 µM

CN(C)Cc1ccc(NCc2ccc(C(F)(F)F)cc2)nc1 [TR-YTH-20]
Ki ([4]; Ki values for YTH library against YTHDF2, read-out: Ki): 266 ± 92 pM | Ki ([4]; read-out: Ki (pM) YTHDF2): 266 ± 92 pM | Ki ([4]; read-out: Ki YTHDF2): 266 ± 92 pM
